# Literature values as cited in publication PMC11409674, “Raffinocyclicin is a novel plasmid-encoded circular bacteriocin produced by Lactococcus raffinolactis with broad-spectrum activity against many gram-positive food pathogens” (Applied and environmental microbiology, 2024).
# System: L. lactis
# Set-up: method as in 7 sources, ref 29 = [29]; PMID 18552180; doi:10.1128/AEM.00817-08; 29 Martin-Visscher LA van Belkum MJ Garneau-Tsodikova S Whittal RM Zheng J McMullen LM Vederas JC Isolation and characterization of carnocyclin A, a novel circular bacteriocin produced by Carnobacteri ||| ref 30 = [30]; PMID 29177092; doi:10.1099/mgen.0.000134; 30 van Heel AJ Montalban-Lopez M Oliveau Q Kuipers OP Genome-guided identification of novel head-to-tail cyclized antimicrobial peptides, exemplified by the discovery of pumilarin Microb Genom 2017 3 ||| ref 31 = [31]; PMID 29030449; doi:10.1128/AEM.01801-17; 31 Borrero J Kelly E O’Connor PM Kelleher P Scully C Cotter PD Mahony J van Sinderen D Plantaricyclin a, a novel circular bacteriocin produced by Lactobacillus plantarum NI326: purification, character ||| ref 32 = [32]; PMID 17464077; doi:10.1099/mic.0.2006/005967-0; 32 Wirawan RE Swanson KM Kleffmann T Jack RW Tagg JR Uberolysin: a novel cyclic bacteriocin produced by Streptococcus uberis Microbiology 2007 153 1619 1630 10.1099/mic.0.2006/005967-0 17464077 ||| ref 27 = [27]; PMID 21057028; doi:10.1128/AEM.01173-10; 27 Borrero J Brede DA Skaugen M Diep DB Herranz C Nes IF Cintas LM Hernández PE Characterization of garvicin ML, a novel circular bacteriocin produced by Lactococcus garvieae DCC43, isolated from mall ||| ...
# Conditions: five strains of L. lactis; cited from earlier work
substance,measurement,value
plantaricyclin A,inhibition of L. lactis strains tested,inhibited all five strains
